Experiments:
[1] = target: T1, purified rabbit kidney neutral endopeptidase (Oryctolagus cuniculus, UniProt P08049); assay: In vitro inhibitory potency against neutral endopeptidase; format: biochemical; details: purified rabbit kidney enzyme, (3H)-D-Ala2-Leu5-enkephalin, 25° C., pH 7.4, DTT 100 equivalents
T1 construct: from tissue; host or cells: rabbit kidney (purified enzyme)
T1 sequence (P08049 1-750): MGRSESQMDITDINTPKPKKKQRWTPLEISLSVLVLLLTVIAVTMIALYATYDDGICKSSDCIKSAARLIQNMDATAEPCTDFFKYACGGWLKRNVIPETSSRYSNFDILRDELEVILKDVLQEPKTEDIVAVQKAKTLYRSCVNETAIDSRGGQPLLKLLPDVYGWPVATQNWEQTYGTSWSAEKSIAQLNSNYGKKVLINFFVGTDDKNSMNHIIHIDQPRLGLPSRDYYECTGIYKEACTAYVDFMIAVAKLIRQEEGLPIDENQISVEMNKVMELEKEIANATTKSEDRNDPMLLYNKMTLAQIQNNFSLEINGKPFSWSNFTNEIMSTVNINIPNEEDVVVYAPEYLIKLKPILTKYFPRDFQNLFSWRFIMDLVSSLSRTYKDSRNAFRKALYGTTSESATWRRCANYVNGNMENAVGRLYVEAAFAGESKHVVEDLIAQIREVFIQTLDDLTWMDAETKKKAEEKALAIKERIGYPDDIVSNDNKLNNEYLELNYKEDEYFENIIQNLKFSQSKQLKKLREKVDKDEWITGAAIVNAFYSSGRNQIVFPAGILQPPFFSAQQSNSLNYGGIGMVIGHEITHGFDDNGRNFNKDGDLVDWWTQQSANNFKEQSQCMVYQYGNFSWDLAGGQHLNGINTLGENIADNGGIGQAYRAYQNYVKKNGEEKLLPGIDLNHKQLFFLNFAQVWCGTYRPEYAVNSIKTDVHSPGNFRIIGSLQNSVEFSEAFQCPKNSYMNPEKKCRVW
Procedure: (§1) The biological activity relates to the inhibition of purified aminopeptidase N and of purified neutral endopeptidase.
(§2) 1) In vitro inhibition of enkephalinase activities.
a) Inhibitory potency against neutral endopeptidase
The inhibitory power is determined on purified rabbit kidney neutral endopeptidase following the protocol described in the literature (Blumberg et al. Life Sci. (1981) 28, 301). After a preincubation for 15 minutes at 25° C., an aliquot of proteins is incubated for 20 minutes at 25° C. in the presence of 20 nmol of (^3 H)-D-Ala^2 -Leu^5 -enkephalin and the test compound in solution in Tris-HCl buffer (pH 7.4) in the presence of dithiothreitol DTT (100 equivalents relative to the inhibitor). The reaction is stopped by adding 0.2 N HCl. The tritiated metabolite (^3 H)-Tyr-D-Ala-Gly is separated from the D-Ala^2 -Leu^5 -enkephalin by chromatography on a Porapak column, and the quantity formed measured using a liquid scintillation counter.
The activity of the different compounds is expressed as 50% inhibitory concentrations (IC50), and the results are summarized in Table II.

[2] = target: T2, purified porcine kidney aminopeptidase N (Sus scrofa, UniProt P15145); assay: In vitro inhibitory potency against aminopeptidase N; format: biochemical; details: purified porcine kidney enzyme, (3H)-Leu5-enkephalin, DTT
T2 construct: purchased Boehringer, France; host or cells: porcine kidney
T2 sequence (P15145 1-963): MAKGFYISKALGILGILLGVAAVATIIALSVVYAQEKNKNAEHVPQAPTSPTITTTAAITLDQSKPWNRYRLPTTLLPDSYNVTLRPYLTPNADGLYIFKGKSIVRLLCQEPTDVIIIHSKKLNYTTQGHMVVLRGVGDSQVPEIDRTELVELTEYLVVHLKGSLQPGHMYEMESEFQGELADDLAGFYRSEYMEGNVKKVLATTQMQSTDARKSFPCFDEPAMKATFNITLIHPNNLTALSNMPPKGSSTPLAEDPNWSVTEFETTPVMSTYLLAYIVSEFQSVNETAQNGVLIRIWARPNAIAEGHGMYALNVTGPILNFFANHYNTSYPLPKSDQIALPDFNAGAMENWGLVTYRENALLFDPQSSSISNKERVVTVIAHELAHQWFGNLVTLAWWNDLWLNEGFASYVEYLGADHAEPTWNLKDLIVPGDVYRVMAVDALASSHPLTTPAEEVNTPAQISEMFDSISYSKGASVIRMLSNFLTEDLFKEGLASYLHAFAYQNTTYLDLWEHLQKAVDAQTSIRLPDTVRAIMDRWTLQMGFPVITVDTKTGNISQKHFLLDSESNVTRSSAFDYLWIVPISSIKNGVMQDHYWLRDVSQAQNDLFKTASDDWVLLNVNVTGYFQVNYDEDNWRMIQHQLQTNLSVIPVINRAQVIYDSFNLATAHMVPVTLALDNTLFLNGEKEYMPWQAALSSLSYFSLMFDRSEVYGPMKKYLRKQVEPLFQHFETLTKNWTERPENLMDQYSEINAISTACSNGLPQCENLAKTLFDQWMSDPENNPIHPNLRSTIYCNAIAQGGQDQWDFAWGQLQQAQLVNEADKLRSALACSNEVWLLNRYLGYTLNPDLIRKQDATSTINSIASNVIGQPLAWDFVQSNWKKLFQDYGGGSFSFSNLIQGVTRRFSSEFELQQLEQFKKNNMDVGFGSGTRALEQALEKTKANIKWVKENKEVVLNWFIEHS
Procedure: as §1, §2
b) Inhibitory potency against aminopeptidase N
The inhibitory power is measured on purified porcine kidney aminopeptidase (Boehringer, France). The assay is performed in a manner identical to the above, using (^3 H)-Leu^5 -enkephalin as a substrate. The metabolite formed, (^3 H)-Tyr, is separated by chromatography on a Porapak column, and the quantity formed measured using a liquid scintillation counter.

Hot plate test, i.v. = format: in vivo; details: Mus musculus, iv, mice, hot plate 55° C., Table III 50% analgesia
Procedure: (§3) 1) Hot .plate test: This involves the licking and jumping reflex of the mouse on a plate heated to 55° C., according to the method of Jacob et al (Arch Int. Pharmacodyn. 122 287, 1959; 1961).
1.1. Administered i.v. (100 μl in tail vein) in mice, the compounds tested display a characteristic effect both on the latency time of jumping and on latency time of licking. These effects are antagonized by naloxone (0.5 mg/kg s.c.).
The results are expressed in Table III as a % analgesia. The percentage analgesia is expressed for each dose of compound tested by the following formula: [formula]

[3] = Tolerance after long-term administration, mice (% analgesia); format: in vivo; details: mouse, s.c. four times per 24 h, compound 8 5 mg/kg, morphine 0.5 mg/kg
Procedure: (§4) e) Study of the tolerance and addiction effects induced by long-term administration of the compound of Example 8:
(§5) 1) The compound 8 is administered s.c. four times per 24 hours at a dose of 5 mg/kg for 6 days to mice and at 10 mg/kg to rats.
(§6) Morphine (hydrochloride) is administered under the same conditions (0.5 mg/kg in mice, 2 mg/kg in rats). The control animals receive only the vehicle.

[4] = Tolerance after long-term administration, rats (% analgesia); format: in vivo; details: rat, s.c. four times per 24 h, compound 8 10 mg/kg, morphine 2 mg/kg, compound 7 dose not given
Procedure: as §4, §5, §6

Hot plate test, i.p. = format: in vivo; details: mice
Procedure: as §3
1.2 Administered i.p. in mice, the test compounds display a characteristic effect on the times of restraint of jumping and of licking. These effects are antagonized by naloxone (0.5 mg/kg).

[5] = Tail flick test (withdrawal of the tail), i.v.; format: in vivo; details: rats, 10 mg/kg
Procedure: 3) Test of withdrawal of the tail in rats: (tail flick test): administered i.v. in rats, the compounds according to the invention produce a significant extension of the time of withdrawal of the tail. These effects are antagonized by naloxone (0.5 mg/kg s.c.).
The results are expressed as a % analgesia for the same dose (10 mg/kg) of all the compounds tested.

cerebral NEP = assay: In vivo inhibition of cerebral NEP; details: mice, i.v.
Procedure: 2) "In vivo" inhibition of cerebral NEP
The enzymatic activity of cerebral NEP is compared in mice untreated or treated with a given dose of compound (approximately 2.5 mg/kg injected intravenously. The animals are sacrificed at variable times after injection of the inhibitor, and the NEP activity is determined in the brain by measuring the degradation of (^3 H)-D-Ala^2 -Leu^5 -enkephalin.
For the final compound of Example 1, injected at a dose of 2.7 μmol/kg (47.6 μg in 100 μl), the following results are obtained: […]

[6] = Test on abdominal cramps induced by phenylbenzoquinone, i.v.; format: in vivo
Procedure: 2) Test on abdominal cramps
(Hendershot and Forsaith. J. Pharmacol. (1975), 125, 237): This test measures the number of cramps induced by i.p. injection of 100 μl of a 0.02% solution of phenylbenzoquinone. The number of cramps is counted during 10 minutes, 10 minutes after the injection. Administered i.v., the compounds decrease the number of cramps.

## C[S+]([O-])CCC(N)CSSCC(CC[S+](C)[O-])C(=O)NC(CC(=O)OCc1ccccc1)c1ccccc1 (stereo not shown) [Example 28]
[1]
  IC50: 3 nM
[2]
  IC50: 2 nM
Hot plate test, i.v.
  ED50: 4 mg/kg

## CN1CC[C@]23c4c5ccc(O)c4O[C@H]2[C@@H](O)C=C[C@H]3[C@H]1C5 [morphine, reference compound]
[3]; day 0
  % analgesia relative to the controls: 100 ± 10%
[3]; day 1
  % analgesia relative to the controls: 60 ± 10%
[3]; day 6
  % analgesia relative to the controls: 0%
[4]; day 0
  % analgesia relative to the controls: 70 ± 12%
[4]; day 1
  % analgesia relative to the controls: 20 ± 3%
[4]; day 6
  % analgesia relative to the controls: 0%

## CSCCC(N)CSSCC(Cc1ccccc1)C(=O)NC(C)C(=O)OCc1ccccc1 (stereo not shown) [Example 6]
[1]
  IC50: 1.2 nM
[2]
  IC50: 2 nM

## NC(CSSCC(Cc1ccccc1)C(=O)NCC(=O)OCc1ccccc1)Cc1ccccc1 (stereo not shown) [Example 4]
[1]
  IC50: 2 nM
[2]
  IC50: 8 nM

## CC(C)CC(N)CSSCC(Cc1ccccc1)C(=O)NC(C)C(=O)OCc1ccccc1 (stereo not shown) [Example 2]
[1]
  IC50: 2.5 nM
[2]
  IC50: 5 nM

## C[S+]([O-])CCC(N)CSSCC(Cc1ccccc1)C(=O)NC1CCCCC1C(=O)OCc1ccccc1 (stereo not shown) [Example 26]
[1]
  IC50: 5 nM
[2]
  IC50: 2 nM
Hot plate test, i.v.
  ED50: 8 mg/kg

## CC(NC(=O)C(CC[S+](C)[O-])CSSCC(N)CC[S+](C)[O-])C(=O)OCc1ccccc1 (stereo not shown) [Example 22]
[1]
  IC50: 7 nM
[2]
  IC50: 2 nM
Hot plate test, i.v.
  ED50: 4.5 mg/kg
Hot plate test, i.p.
  dose in i.p. hot plate table: 6 mg/kg

## CC(C)CC(N)CSSCC(Cc1ccccc1)C(=O)NC(Cc1ccccc1)C(=O)OCc1ccccc1 (stereo not shown) [Example 3]
[1]
  IC50: 1.2 nM
[2]
  IC50: 5 nM

## C[S+]([O-])CCC(N)CSSCC(CC[S+](C)[O-])C(=O)NC1CCCCC1C(=O)OCc1ccccc1 (stereo not shown) [Example 32]
[1]
  IC50: 4 nM
[2]
  IC50: 2 nM
Hot plate test, i.v.
  ED50: 2 mg/kg
Hot plate test, i.p.
  dose in i.p. hot plate table: 5.5 mg/kg
[5]
  % analgesia (tail flick): 36%

## CC(C)CC(CSSCC(N)CC[S+](C)[O-])C(=O)NN1CCOCC1 (stereo not shown) [Example 33]
[1]
  IC50: 5 nM
[2]
  IC50: 2 nM

## CC(C)CC(N)CSSCC(Cc1ccccc1)C(=O)NCC(=O)OCc1ccccc1 (stereo not shown) [Example 1]
[1]
  IC50: 2 nM
[2]
  IC50: 5 nM
Cerebral NEP; 2.7 μmol/kg (Example 7: same conditions), 60'
  % inhibition cerebral NEP: 68 ± 4%
Cerebral NEP; 2.7 μmol/kg (Example 7: same conditions), 120'
  % inhibition cerebral NEP: 63 ± 2%
Cerebral NEP; 2.7 μmol/kg (Example 7: same conditions), 180'
  % inhibition cerebral NEP: 42 ± 16%
Cerebral NEP; 2.7 μmol/kg, 15' (n = 4)
  % inhibition cerebral NEP: 96 ± 9%
Hot plate test, i.v.
  ED50: 4 mg/kg
Hot plate test, i.p.
  dose in i.p. hot plate table: 10 mg/kg
[6]; 1 mg/kg
  % analgesia (abdominal cramps): 24.6% ± 8
[6]; 3 mg/kg
  % analgesia (abdominal cramps): 46.9% ± 7.9
[6]; 9 mg/kg
  % analgesia (abdominal cramps): 73.9% ± 8.2
[5]
  % analgesia (tail flick): 20%

Source: US5491169A, “Amino acid derivatives and their therapeutical applications” (priority 1989, dated 1996)
